“Also recorded” adds a separate entry of the source. Where two headings read alike, the source gives them in different places.
Columns and labels:
[1] = system: rat model of prostate bone cancer pain; experiment: animal or person; format: in vivo, Male Wistar rats; settings: for ED50: Rattus norvegicus
[2] = system: rat model of diabetic neuropathic pain; design: species or system rats; settings: in vivo
[3] = system: streptozotocin-induced diabetic neuropathy model of neuropathic pain; settings: rat, in vivo, ip, 2.5 mg/kg
[4] = rat, in vivo
[5] = male, Wistar (HsdBrlHan WIST), rat, in vivo, ip

SMILES | ED50 ([1]; ip) | ED50 ([1]; read-out: ED50 Mean) | reversal of hyperalgesia [2] | reversal in hyperalgesia [3] | mean rest times [4] | antinociception ([1]; rat, in vivo, ip) | reversal of hyperalgesia ([1]; rat, in vivo, ip, 5 mg/kg) | maximum non-sedating dose [5]
CCOC(=O)Nc1ccc(NCc2ccc(F)cc2)nc1N [flupirtine] | 3.32 mg/kg | 3.32 mg/kg | 8±8% | over 20% | 943.83 s |  |  | 
CN1CC[C@]23c4c5ccc(O)c4O[C@H]2[C@@H](O)C=C[C@H]3[C@H]1C5 [morphine] | 0.735 mg/kg | 0.735 mg/kg |  |  |  | dose related antinociception; also recorded: dose related antinociceptive effects | 73% | 5 mg/kg
